According to patent publication US20250129088A1, “CEREBLON E3 UBIQUITIN LIGASE INHIBITOR” (Gan & Lee Pharmaceuticals Co., Ltd., priority 2022, published 2025):

Legend:
Type in all cases: cell-based
22RV1 cells = experiment: 22RV1 cell proliferation inhibition, CCK-8; conditions: 22RV1, 7 days
Procedure: The complete medium required for 22RV1 cells is RPM11640 (ATCC, Product number: 30-2001) basal medium containing 10% fetal bovine serum. 22RV1 cells were seeded in a 96-well plate at a density of 4,000 cells/well, and the next day, different concentrations of the compound of the present invention and the positive control sample JQ1 (source: Bide Pharmaceuticals) were prepared to treat the cells, and the cells were cultured at 37° C. and 5% CO2 for 7 days in the incubator. Cell viability was detected using the CCK-8 kit (Beyotime, Product number: C0040) according to the manufacturer's instructions. According to the inhibition rate, the GraphPad Prism software was used to calculate the IC50 value of each compound for 7 days, and the results are shown in Table 4.

MV-4-11 cells = experiment: MV-4-11 cell proliferation inhibition, CCK-8; conditions: Homo sapiens, MV4-11, 96 h, MV-4-11, 4 days, Table 8, positive control Ibrutinib
Procedure: The complete medium required for MV-4-11 cells is IMDM (ATCC, Product number: 30-2005) basal medium containing 10% fetal bovine serum. MV-4-11 cells were seeded in a 96-well plate at a density of 7,500 cells/well, and different concentrations of the compound of the present invention and positive control samples Alisertib (source: Bide Pharmaceuticals), Palbociclib (source: Bide Pharmaceuticals), Ibrutinib (source Bide Pharmaceuticals) treated cells. The cells were incubated in a 37° C., 5% CO2 cell incubator for 4 days. Cell viability was detected using the CCK-8 kit (Beyotime, Product number: C0040) according to the manufacturer's instructions. According to the inhibition rate, GraphPad Prism software was used to calculate the IC50 value of each compound for 4 days, and the results are shown in Table 6-8.

T-47D cells = experiment: T-47D cell proliferation inhibition, CCK-8; conditions: Homo sapiens, T47D, 144 h, 6 days
Procedure: The complete medium required for T-47D cells is 1640 (ATCC, Product number: A10491-01) basal medium containing 10% fetal bovine serum. T-47D cells were seeded in a 96-well plate at a density of 3,000/well, and different concentrations of the compound of the present invention and the positive control sample ARV-471 (source: Innochem) were prepared to treat the cells. The cells were incubated at 37° C., 5% for 6 days in a CO2 cell incubator. Cell viability was detected using the CCK-8 kit (Beyotime, Product number: C0040) according to the manufacturer's instructions. According to the inhibition rate, the GraphPadPrism software was used to calculate the IC50 value of each compound for 6 days, and the results are shown in Table 17.

MCF-7 cells = experiment: MCF-7 cell proliferation inhibition, CCK-8; conditions: Homo sapiens, MCF7, 216 h, MCF-7, 9 days
Procedure: The complete medium required for MCF-7 cells is DMEM (gibco, Product number: 11995-065) basal medium containing 10% fetal bovine serum. MCF-7 cells were seeded in a 96-well plate at a density of 800/well, and different concentrations of the compound of the present invention and the positive control sample ARV-471 (source: Enochem) were prepared to treat the cells. The cells were incubated at 37° C., 5% 9 days in a CO2 cell incubator. Cell viability was detected using the CCK-8 kit (Beyotime, Product number: C0040) according to the manufacturer's instructions. According to the inhibition rate, GraphPadPrism software was used to calculate the IC50 value of each compound for 9 days, and the results are shown in Table 18.

Row | SMILES | IC50 (MV-4-11 cells) | IC50 (22RV1 cells; Homo sapiens, 168 h) | IC50 (T-47D cells) | IC50 (MCF-7 cells) | IC50 (22RV1 cells)
1 | Cc1sc2c(c1C)C(c1ccc(Cl)cc1)=N[C@@H](CC(=O)OC(C)(C)C)c1nnc(C)n1-2 [JQ1, reference compound] | – | – | – | – | 44 nM
2 | Cc1sc2c(c1C)C(c1ccc(Cl)cc1)=N[C@@H](CC(=O)N1CC3(CCc4cc5c(cc4O3)CN(C3CCC(=O)NC3=O)C5=O)C1)c1nnc(C)n1-2 (stereo partly drawn) [PROTAC 46, 3-(1-(2-((S)-4-(4-chlorophenyl)-2,3,9-trimethyl-6H-thieno[3,2-f][1,2,4]triazolo[4,3-a][1,4]diazepine-6-yl)acetyl)-6′-oxo-3′,4′,6′,8′-tetrahydro-7′H-spiro[azetidine-3,2′-pyrano[2,3-f]isoindole]-7′-yl)piperidine-2,6-dione] | 5.4 nM | 226 nM | – | – | –
3 | Cc1sc2c(c1C)C(c1ccc(Cl)cc1)=N[C@@H](CC(=O)N1CCC3(CCc4cc5c(cc4O3)CN(C3CCC(=O)NC3=O)C5=O)CC1)c1nnc(C)n1-2 (stereo partly drawn) [PROTAC 47, 3-(1-(2-((S)-4-(4-chlorophenyl)-2,3,9-trimethyl-6H-thieno[3,2-f][1,2,4]triazolo[4,3-a][1,4]diazepine-6-yl)acetyl)-6′-oxo-3′,4′,6′,8′-tetrahydro-7′H-spiro[piperidine-4,2′-pyrano[2,3-f]isoindole]-7′-yl)piperidine-2,6-dione] | 17 nM | 103 nM | – | – | –
4 | Cc1sc2c(c1C)C(c1ccc(Cl)cc1)=N[C@@H](CC(=O)N1CCC3(CCc4cc5c(cc4O3)C(=O)N(C3CCC(=O)NC3=O)C5)CC1)c1nnc(C)n1-2 (stereo partly drawn) [PROTAC 48, 3-(1-(2-((S)-4-(4-chlorophenyl)-2,3,9-trimethyl-6H-thieno[3,2-f][1,2,4]triazolo[4,3-a][1,4]diazepine-6-yl)acetyl)-8′-oxo-3′,4′,6′,8′-tetrahydro-7′H-spiro[piperidine-4,2′-pyrano[2,3-f]isoindole]-7′-yl)piperidine-2,6-dione] | 0.96 nM | 24 nM | – | – | –
5 | Cc1sc2c(c1C)C(c1ccc(Cl)cc1)=N[C@@H](CC(=O)N1CCC3(CC1)COc1cc4c(cc1O3)CN(C1CCC(=O)NC1=O)C4=O)c1nnc(C)n1-2 (stereo partly drawn) [PROTAC 49, 3-(1-(2-((S)-4-(4-chlorophenyl)-2,3,9-trimethyl-6H-thieno[3,2-f][1,2,4]triazolo[4,3-a][1,4]diazepine-6-yl)acetyl)-6′-oxo-6′,8′-dihydro-3′H,7′H-spiro[piperidin-4,2′-[1,4]dioxino[2,3-f]isoindole]-7′-yl)piperidine-2,6-dione] | 8.2 nM | 141 nM | – | – | –
6 | Cc1sc2c(c1C)C(c1ccc(Cl)cc1)=N[C@@H](CC(=O)N1CCC3(CCc4cc5c(cc4O3)C(=O)N(C3CCC(=O)NC3=O)C5=O)CC1)c1nnc(C)n1-2 (stereo partly drawn) [PROTAC 50, 1-(2-((S)-4-(4-chlorophenyl)-2,3,9-trimethyl-6H-thieno[3,2-f][1,2,4]triazole[4,3-a][1,4]diazepine-6-yl)acetyl)-7′-(2,6-dioxopiperidin-3-yl)-3′,4′-dihydro-6′H-spiro[piperidine-4,2′-pyrano[2,3-f]isoindole]-6′,8′(7′H)-dione] | 6.9 nM | 15 nM | – | – | –
7 | Cc1sc2c(c1C)C(c1ccc(Cl)cc1)=N[C@@H](CC(=O)N1CC3(CCc4cc5c(cc4O3)C(=O)N(C3CCC(=O)NC3=O)C5=O)C1)c1nnc(C)n1-2 (stereo partly drawn) [PROTAC 51, 1-(2-((S)-4-(4-chlorophenyl)-2,3,9-trimethyl-6H-thieno[3,2-f][1,2,4]triazole[4,3-a][1,4]diazepine-6-yl)acetyl)-7′-(2,6-dioxopiperidin-3-yl)-3′,4′-dihydro-6′H-spiro[azetidine-3,2′-pyrano[2,3-f]isoindole]-6′,8′(7′H)-dione] | 20 nM | 123 nM | – | – | –
8 | O=C1CCC(N2C(=O)c3cc4c(cc3C2=O)C2(CCN(C3CCC5(CC3)CCN(c3ccc([C@@H]6c7ccc(O)cc7CC[C@@H]6c6ccccc6)cc3)CC5)CC2)CO4)C(=O)N1 (stereo partly drawn) [PROTAC 54, 6-(2,6-dioxopiperidin-3-yl)-1′-(3-(4-((1R,2S)-6-hydroxy-2-phenyl-1,2,3,4-tetralin-1-yl)phenyl)-3-azaspiro[5.5]undec-9-yl)-6-hydrogen-2H,5H-spiro[furo[2,3-f]isoindole-3,4′-piperidine]-5,7-dione] | – | – | 68 nM | 170 nM | –
9 | O=C1CCC(N2Cc3cc4c(cc3C2=O)CCC2(CN(C3CC5(CCN(c6ccc([C@@H]7c8ccc(O)cc8CC[C@@H]7c7ccccc7)cc6)CC5)C3)C2)O4)C(=O)N1 (stereo partly drawn) [PROTAC 56, 3-(1-(7-(4-((1R,2S)-6-hydroxy-2-phenyl-1,2,3,4-tetrahydronaphthalen-1-yl)phenyl)-7-azaspiro[3.5]non-2-yl)-6′-oxo-3′,4′,6′,8′-tetrahydro-7′H-spiro[azetidine-3,2′-pyrano[2,3-f]isoindol]-7′-yl)piperidine-2,6-dione] | – | – | 1.6 nM | 70 nM | –
10 | O=C1CCC(N2Cc3cc4c(cc3C2=O)CCC2(CCN(C3CC5(CCN(c6ccc([C@@H]7c8ccc(O)cc8CC[C@@H]7c7ccccc7)cc6)CC5)C3)CC2)O4)C(=O)N1 (stereo partly drawn) [PROTAC 57, 3-(1-(7-(4-((1R,2S)-6-hydroxy-2-phenyl-1,2,3,4-tetrahydronaphthalen-1-yl)phenyl)-7-nitrogenheterospiro[3.5]non-2-yl)-6′-oxo-3′,4′,6′,8′-tetrahydro-7′H-spiro[piperidin-4,2′-pyrano [2,3-f]isoindole]-7′-yl)piperidine-2,6-dione] | – | – | 2 nM | 10 nM | –
11 | O=C1CCC(N2Cc3ccc4c(c3C2=O)OCC2(CCN(C3CCC5(CC3)CCN(c3ccc([C@@H]6c7ccc(O)cc7CC[C@@H]6c6ccccc6)cc3)CC5)CC2)C4)C(=O)N1 (stereo partly drawn) [PROTAC 59, 3-(1-(3-(4-((1R,2S)-6-hydroxy-2-phenyl-1,2,3,4-tetrahydronaphthalen-1-yl)phenyl)-3-azaspiro[5.5]undec-9-yl)-9′-oxo-7′,9′-dihydro-2′H-spiro[piperidin-4,3′-pyrano[2,3-f]isoindole]-8′(4′H)-yl)piperidine-2,6-dione] | – | – | 5.2 nM | 130 nM | –

Second part, led by results:

Row | IC50 (MV-4-11 cells) | IC50 (22RV1 cells; Homo sapiens, 168 h) | IC50 (T-47D cells) | IC50 (MCF-7 cells) | SMILES | IC50 (22RV1 cells)
12 | – | – | 2.9 nM | 90 nM | O=C1CCC(N2Cc3cc4c(cc3C2=O)OC2(CC4)CN(C3CCC4(CC3)CN(c3ccc([C@@H]5c6ccc(O)cc6CC[C@@H]5c5ccccc5)cc3)C4)C2)C(=O)N1 (stereo partly drawn) [PROTAC 53, 3-(1-(2-(4-((1R,2S)-6-hydroxy-2-phenyl-1,2,3,4-tetrahydronaphthalen-1-yl)phenyl)-2-azaspiro [3.5]non-7-yl)-8′-oxo-3′,4′,6′,8′-tetrahydro-7′H-spiro[azetidine-3,2′-pyrano[2,3]isoindol]-7′-yl]piperidine-2,6-dione] | –
13 | – | – | 6.6 nM | 40 nM | O=C1CCC(N2Cc3cc4c(cc3C2=O)CCC2(CN(C3CCC5(CC3)CN(c3ccc([C@@H]6c7ccc(O)cc7CC[C@@H]6c6ccccc6)cc3)C5)C2)O4)C(=O)N1 (stereo partly drawn) [PROTAC 55, 3-(1-(2-(4-((1R,2S)-6-hydroxy-2-phenyl-1,2,3,4-tetrahydronaphthalen-1-yl)phenyl)-2-azaspiro [3.5]non-7-yl)-6′-oxo-3′,4′,6′,8′-tetrahydro-7′H-spiro[azetidine-3,2′-pyrano[2,3-f]isoindol]-7′-yl)piperidine-2,6-dione] | –
14 | – | – | 1 nM | 20 nM | O=C1CCC(N2Cc3cc4c(cc3C2=O)OCC2(CCN(C3CC5(CCN(c6ccc([C@@H]7c8ccc(O)cc8CC[C@@H]7c7ccccc7)cc6)CC5)C3)CC2)O4)C(=O)N1 (stereo partly drawn) [PROTAC 58, 3-(1-(7-(4-((1R,2S)-6-hydroxy-2-phenyl-1,2,3,4-tetrahydronaphthalen-1-yl)phenyl)-7-azaspiro [3.5]non-2-yl)-6′-oxo-6′,8′-dihydro-3′H,7′H-spiro[piperidine-4,2′-[1,4]dioxino[2,3-f]isoindol]-7′-yl)piperidine-2,6-dione] | –
